Data taken from patent US20150306226A1, “COMPOSITION” (RATIOPHARM GMBH, priority 2012, published 2015).
Converted amounts (≈) assume the structure as drawn.

Test: solubility in aqueous buffer
Type: physicochemical
Details: aqueous buffer pH 7.4, room temperature
Method: Enantiomerically pure compound (I) has low solubility in aqueous solution. In aqueous buffer pH 7.4 the solubility measured at room temperature is about 0.01 mg/ml. Poor solubility typically leads to poor oral bioavailability, fed/fasted variations in bioavailability, cumbersome and inconvenient dosage forms, and may necessitate the use of harsh solubilising agents that are associated with adverse side effects.

CCOc1cc(C(CS(C)(=O)=O)N2C(=O)c3cccc(NC(C)=O)c3C2=O)ccc1OC (stereo not shown) [compound (I), N-[2-[1-(3-ethoxy-4-methoxyphenyl)-2-(methylsulfonyl)ethyl]-1,3-dioxo-2,3-dihydro-1H-isoindol-4-yl]acetamide]
solubility: ~10 µg/mL (≈ 21.7 µM)
